# Data taken from patent publication US6358885B1, “Substituted phenylheterocyclic herbicides” (Mississippi State University, priority 1992, dated 2002).
# Key:
# soybean = experiment: Test B preemergence/postemergence greenhouse plant response rating 0 to 10; format: in vivo, Glycine max; conditions: for Plant response rating, Soybean: 0 to 10 scale
# How it was run: (§1)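 Both application timings were run together: seeds got compound preemergence, and established seedlings (two to eighteen cm) got it postemergence. Non-phytotoxic solvent carried the chemical. Ratings are visual, versus controls, at twelve to sixteen days.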
# chickweed = experiment: as above; format: in vivo, Stellaria media; conditions: for Plant response rating, Chickweed: 0 to 10 scale
# How it was run: as §1
# morningglory = experiment: as above; format: in vivo, Ipomoea hederacea; conditions: for Plant response rating, Morningglory: 0 to 10 scale
# How it was run: as §1
# purple nutsedge = experiment: as above; format: in vivo, Cyperus rotundus; conditions: for Plant response rating, Nutsedge: 0 to 10 scale
# How it was run: as §1
# bedstraw = experiment: Test C preemergence/postemergence greenhouse plant response rating 0 to 100; format: in vivo, Galium aparine; conditions: for Plant response rating, Bedstraw: 125 g/ha, 0 to 100 scale
# How it was run: (§2)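 Compounds in non-phytotoxic solvent applied preemergence to sandy loam one day after planting, postemergence at the 1–4 leaf stage, or to ~2.5 cm floodwater over silt loam.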
# barley = experiment: as above; format: in vivo, Hordeum vulgare; conditions: for Plant response rating Barley Igri: 125 g/ha, 0 to 100 scale
# How it was run: as §2
# corn = experiment: Test B preemergence/postemergence greenhouse plant response rating 0 to 10; format: in vivo, Zea mays; conditions: for Plant response rating, Corn: 0 to 10 scale
# How it was run: as §1
# umbrella sedge = experiment: Test C flood test plant response rating 0 to 100; format: in vivo, Cyperus difformis
# How it was run: as §2
# sorghum = experiment: Test B preemergence/postemergence greenhouse plant response rating 0 to 10; format: in vivo, Sorghum bicolor; conditions: for Plant response rating, Sorghum: 0 to 10 scale
# How it was run: as §1
# wild buckwheat = experiment: Test C preemergence/postemergence greenhouse plant response rating 0 to 100; format: in vivo, Polygonum convolvulus; conditions: for Plant response rating, Wild buckwheat: 125 g/ha, 0 to 100 scale
# How it was run: as §2
compound,measurement,setting,value
COCOc1cc(-c2nn3c(c2Cl)CCCC3)c(F)cc1Cl [Compound 58],"Plant response rating, Soybean","soybean; POSTEMERGENCE, Rate 50 g/ha",7
same,"Plant response rating, Soybean","soybean; PREEMERGENCE, Rate 50 g/ha",0
same,"Plant response rating (0 to 10 scale), Soybean","soybean; PREEMERGENCE, Rate 200 g/ha",0
same,"Plant response rating, Soybean","soybean; Rate 200 g/ha, POSTEMERGENCE",9
same,"Plant response rating, Chickweed","chickweed; POSTEMERGENCE, Rate 50 g/ha",9
same,"Plant response rating, Chickweed","chickweed; PREEMERGENCE, Rate 50 g/ha",10
same,"Plant response rating (0 to 10 scale), Chickweed","chickweed; PREEMERGENCE, Rate 200 g/ha",10
same,"Plant response rating, Chickweed","chickweed; Rate 200 g/ha, POSTEMERGENCE",10
same,"Plant response rating, Morningglory","morningglory; POSTEMERGENCE, Rate 50 g/ha",9
same,"Plant response rating, Morningglory","morningglory; PREEMERGENCE, Rate 50 g/ha",4
same,"Plant response rating (0 to 10 scale), Morningglory","morningglory; PREEMERGENCE, Rate 200 g/ha",4
same,"Plant response rating, Morningglory","morningglory; Rate 200 g/ha, POSTEMERGENCE",10
same,"Plant response rating, Nutsedge","purple nutsedge; POSTEMERGENCE, Rate 50 g/ha",5
same,"Plant response rating, Nutsedge","purple nutsedge; PREEMERGENCE, Rate 50 g/ha",0
same,"Plant response rating (0 to 10 scale), Nutsedge","purple nutsedge; PREEMERGENCE, Rate 200 g/ha",0
same,"Plant response rating, Nutsedge","purple nutsedge; Rate 200 g/ha, POSTEMERGENCE",9
same,"Plant response rating, Bedstraw",bedstraw; POSTEMERGENCE,100
same,"Plant response rating (0 to 100), Bedstraw","bedstraw; POSTEMERGENCE, Rate 2 g/ha",60
same,"Plant response rating, Bedstraw",bedstraw; PREEMERGENCE,70
same,"Plant response rating (0 to 100), Bedstraw","bedstraw; PREEMERGENCE, Rate 2 g/ha",0
same,"Plant response rating (0 to 100), Bedstraw","bedstraw; Rate 8 g/ha, POSTEMERGENCE",100
same,"Plant response rating (0 to 100), Bedstraw","bedstraw; Rate 8 g/ha, PREEMERGENCE",10
same,"Plant response rating (0 to 100), Bedstraw","bedstraw; Rate 31 g/ha, PREEMERGENCE",50
same,Plant response rating Barley Igri,barley; POSTEMERGENCE,60
same,"Plant response rating (0 to 100), Barley Igri","barley; POSTEMERGENCE, Rate 2 g/ha",30
same,Plant response rating Barley Igri,barley; PREEMERGENCE,30
same,"Plant response rating (0 to 100), Barley Igri","barley; PREEMERGENCE, Rate 2 g/ha",0
same,"Plant response rating (0 to 100), Barley Igri","barley; Rate 8 g/ha, POSTEMERGENCE",40
same,"Plant response rating (0 to 100), Barley Igri","barley; Rate 8 g/ha, PREEMERGENCE",0
same,"Plant response rating (0 to 100), Barley Igri","barley; Rate 31 g/ha, POSTEMERGENCE",50
same,"Plant response rating (0 to 100), Barley Igri","barley; Rate 31 g/ha, PREEMERGENCE",0
same,"Plant response rating, Corn","corn; POSTEMERGENCE, Rate 50 g/ha",5
same,"Plant response rating, Corn","corn; PREEMERGENCE, Rate 50 g/ha",2
same,"Plant response rating (0 to 10 scale), Corn","corn; PREEMERGENCE, Rate 200 g/ha",4
same,"Plant response rating, Corn","corn; Rate 200 g/ha, POSTEMERGENCE",6
same,"Plant response rating (0 to 100), Umbrella sedge","umbrella sedge; POSTEMERGENCE section, flood test, Rate 2 g/ha",25
same,"Plant response rating (0 to 100), Umbrella sedge","umbrella sedge; Rate 8 g/ha, under POSTEMERGENCE head (flood test species)",30
same,"Plant response rating (0 to 100), Umbrella sedge","umbrella sedge; Rate 31 g/ha, under POSTEMERGENCE head (flood test species)",70
same,Plant response rating Umbrella sedge,"umbrella sedge; flood test species listed under POSTEMERGENCE, 125 g/ha, 0 to 100 scale",100
same,"Plant response rating, Sorghum","sorghum; POSTEMERGENCE, Rate 50 g/ha",4
same,"Plant response rating, Sorghum","sorghum; PREEMERGENCE, Rate 50 g/ha",2
same,"Plant response rating (0 to 10 scale), Sorghum","sorghum; PREEMERGENCE, Rate 200 g/ha",3
same,"Plant response rating, Sorghum","sorghum; Rate 200 g/ha, POSTEMERGENCE",6
same,"Plant response rating, Wild buckwheat",wild buckwheat; POSTEMERGENCE,100
same,"Plant response rating (0 to 100), Wild buckwheat","wild buckwheat; POSTEMERGENCE, Rate 2 g/ha",100
same,"Plant response rating, Wild buckwheat",wild buckwheat; PREEMERGENCE,100
same,"Plant response rating (0 to 100), Wild buckwheat","wild buckwheat; PREEMERGENCE, Rate 2 g/ha",0
same,"Plant response rating (0 to 100), Wild buckwheat","wild buckwheat; Rate 8 g/ha, POSTEMERGENCE",100
same,"Plant response rating (0 to 100), Wild buckwheat","wild buckwheat; Rate 8 g/ha, PREEMERGENCE",40
